These results are taken from patent US11497740B2, “Use of Jumonji C demethylase inhibitors for the treatment and prevention of chemotherapy resistance and radioresistance in cancer” (THE BOARD OF REGENTS OF THE UNIVERSITY OF TEXAS SYSTEM, priority 2016, dated 2022).

Series [1] concerns H1299 T18. The series can be described thus: MTS cell viability assay, H1299 T18 resistant variant vs H1299 Parental. Type of series: cell-based, human. The note with it: H1299 T18 vs H1299 Parental. The procedure: NSCLC lines were treated with paclitaxel+carboplatin combination, given in a ˜2:3 wt/wt ratio, to mirror the clinical dosage values of ˜225 mg/m2 and ˜330 mg/m2, paclitaxel and carboplatin respectively. Note that considering the molecular weights of the two drugs, this translates to approximately a 1 to 3.4 molar ratio. Drugs were given in cycles, following a drug on/drug off treatment scheme. Each cycle consisted of 4-5 days of drug treatment and drug-free culturing for about 1-2 weeks or more to allow the surviving cells to repopulate the plate. […] Untreated parental cells were simultaneously maintained at all times for comparison. Cell viability was assessed in 96-well plates using standard MTS assays (Promega). Treatment duration in MTS assays was 4 days. Drugs were tested in two- or four-fold serial dilutions, totaling 8 different drug concentrations, with 8 replicates per concentration. Response was validated in multiple replicate plates (n≥3).
Cell viability was assessed by standard MTS assays using Promega's CellTiter reagents. Eight drug concentrations given as two- or four-fold dilutions were tested for each chemotherapeutic agent. In addition, each experiment contained eight replicates per concentration and the entire assay was performed in multiple replicates (n≥3).
For orientation: Tetrazolium assays rely on reduction of a dye to a coloured formazan, in cell work by metabolically active cells.

Series [2] has as its system H1299 Parental xenografts. Conditions: for final tumor burden (tumor weights) of combination / tumor growth inhibition of combination: combination with paclitaxel+carboplatin chemotherapy. The protocol: (§1) Animals were housed under standard, sterile conditions at UTSW animal facility. All experiments were carried out under approved IACUC protocols and followed UTSW animal care procedures. For tumor growth rate studies and docetaxel+cisplatin drug response comparisons, 6-8 week old female NOD/SCID mice were used. For all subsequent in vivo drug response studies, 6 week old female athymic nude mice were used (Charles River Labs, Jackson Labs). Experimental details are provided in supplemental information.
(§2) Parental and resistant NSCLC cell lines (1×10^6 cells in PBS or RPMI for H1299; 5×10^6 cells in PBS/matrigel for H1355 and HCC4017) were injected subcutaneously into the right flank of mice. Tumor growth was monitored by caliper measurements and tumor volume was calculated by 0.5×length×width^2). Treatment was started when tumors reached ˜150-200 mm3. Drug/Vehicle therapy was given to tumor volume matched pairs. Docetaxel (3 mg/kg) and cisplatin (3 mg/kg) were given i.p. once a week for 3 weeks. For JIB-04 studies, nude mice were randomized to receive either of 5, 20 or 50 mg/kg doses or vehicle, 3× per week for 2 weeks by gavage in 12.5% cremophor EL, 12.5% DMSO, aqueous suspension.

In series [3] the test system is H1299 T18 xenografts. Conditions: for final tumor weights vs vehicle: GSK-J4 100 mg/kg 10 days, JIB-04 50 mg/kg; for tumor volume vs vehicle: GSK-J4 100 mg/kg every day 10 days, JIB-04 5, 20 or 50 mg/kg 3x per week 2 weeks by gavage. The protocol:
as §1, §2

Series [4] relates to H1355 T16 xenografts. The note with it: for toxicity in treated mice: mouse, in vivo. The procedure:
as §1
Parental and resistant NSCLC cell lines (1×10^6 cells in PBS or RPMI for H1299; 5×10^6 cells in PBS/matrigel for H1355 and HCC4017) were injected subcutaneously into the right flank of mice. Tumor growth was monitored by caliper measurements and tumor volume was calculated by 0.5×length×width^2). Treatment was started when tumors reached ˜150-200 mm3. Drug/Vehicle therapy was given to tumor volume matched pairs. Docetaxel (3 mg/kg) and cisplatin (3 mg/kg) were given i.p. once a week for 3 weeks. […]

For series [5], the system named is H3K4me3 demethylase activity. The series can be described thus: Histone demethylase activity in tumor lysates by ELISA (H3K4me3). Type of series: in vivo. The note with it: H1299 T18 xenografts, drug-treated vs vehicle. An excerpt: (§3) To evaluate whether the targeted KDM enzymatic activity was reduced in the JmjC inhibitor-treated tumors in vivo, the inventors measured histone demethylase activity in drug-treated and vehicle-control tumor lysates by ELISA. […] Altogether, the results confirmed reduction of the targeted KDM enzymatic activity with cytostatic/cytotoxic effects in JmjC inhibitor-treated chemoresistant xenografts.
A general note: In an ELISA, binding on a coated surface is turned into a signal by an enzyme label.

The subject of series [6] is H3K9me3 demethylase activity. The series can be described thus: Histone demethylase activity in tumor lysates by ELISA (H3K9me3). Type of series: in vivo. Conditions: H1299 T18 xenografts, drug-treated vs vehicle.
Source text: as §3

Series [7] concerns ABCB1/MDR1. The series can be described thus: qRT-PCR of ABCB1/MDR1 in treated H1299 T18 cells. Type of series: cell-based, human. The note with it: for expression of MDR1: H1299 T18 cells. The text has this:
(§4) Total RNA was isolated using RNeasy Plus Mini kit (Qiagen) and cDNA was generated using iScript cDNA synthesis kit (BioRad). For epigenetic enzymes, transcripts were detected by SYBR Green chemistry in real time quantitative PCR assays using validated primers. TBP and GAPDH were used as endogenous controls. […] For all non-epigenetic transcripts, TaqMan probes (Life Technologies) were utilized in multiplex with GAPDH internal reference gene. Additionally, a reference sample containing pooled RNA from normal human and tumor tissues (Stratagene) was used. PCR reactions were run using the ABI 7300 Real-time PCR System and analyzed with the included software. The comparative CT method was used to compute relative mRNA expression.

In series [8] the test system is pro-apoptotic/anti-proliferative genes and proliferative/oncogenic genes. The series can be described thus: qRT-PCR of pro-apoptotic and proliferative genes in treated H1299 T18 cells. Type of series: cell-based, human. Conditions: 24 h; JIB-04 0.2 μM or GSK-J4 1 μM.
Source text: as §4
For orientation: Real-time PCR tracks product formation cycle by cycle.

Where [9] appears, read: from non-linear regression/exponential growth curves.

SMILES strings stand for the structures.

For the compound `CCOC(=O)CCNc1cc(N2CCc3ccccc3CC2)nc(-c2ccccn2)n1` [GSK-J4], the “sensitivity of resistant variant compared to parental cells” value in series [1] is reported as “higher sensitivity”. Further, in series [2] (GSK-J4 100 mg/kg 10 days), the “final tumor weights vs vehicle” value is recorded as “no significant drug-induced decrease”. In addition, in series [2], the “final tumor burden (tumor weights) of combination” value is “significant reduction in final tumor burden compared to either therapy alone” and the “tumor growth inhibition of combination” value is on record as “significantly greater tumor growth inhibition than single agents”. Besides, in series [3], the “final tumor weights vs vehicle” value is “significant decrease in final tumor weights” and the “tumor volume vs vehicle” value is “significant reduction in average tumor volume”. Also, in series [3] (mouse, in vivo), the “% γH2AX+ cells in tumors (IHC)” value is given as “increased the % γH2AX+ cells” and the “cleaved caspase 3 staining in tumors (IHC)” value is reported as “focally increased cleaved caspase 3 staining”. The “toxicity in treated mice” value in series [4] is reported as “No appreciable toxicity”. For the same compound, in series [5], the “H3K4me3 demethylase activity in tumor lysates” value is listed as “without reducing H3K4me3 or H3K9me3 demethylase activity”. Also, in series [6], the “H3K9me3 demethylase activity in tumor lysates” value was “without reducing H3K4me3 or H3K9me3 demethylase activity”. Also, in series [7], the “expression of MDR1” value is recorded as “not altered”. For the same compound, in series [8], the pro-apoptotic/anti-proliferative gene expression result was “up-regulated” and the proliferative/oncogenic gene expression result was “downregulated”.
Consider `Clc1ccc(N/N=C(\c2ccccc2)c2ccccn2)nc1` [JIB-04], for which the “sensitivity of resistant variant compared to parental cells” value in series [1] was “several-fold hyper-sensitized”. Moreover, the “H1299 T18 SR (Selectivity Ratio)” value in series [1] (SR = [IC50 of Parental]/[IC50 of Resistant]) stood at 20.3. Besides, in series [2] (GSK-J4 100 mg/kg every day 10 days, JIB-04 5, 20 or 50 mg/kg 3x per week 2 weeks by gavage), the “tumor volume vs vehicle” value is recorded as “significantly reduced tumor burden”. Also, in series [2], the “final tumor burden (tumor weights) of combination” value is “significant reduction in final tumor burden compared to either therapy alone” and the “tumor growth inhibition of combination” value is “significantly greater tumor growth inhibition than single agents”. Moreover, the “change in tumor doubling time” value in series [2] (setting [9]) is less than 25%. For the same compound, in series [3], the “final tumor weights vs vehicle” value is “significant decrease in final tumor weights” and the “tumor volume vs vehicle” value is listed as “greater percent reduction in final tumor volumes”. Moreover, the “increase in tumor doubling time” value in series [3] (setting [9]) was 69%. In series [3] (mouse, in vivo), the “% Ki67+ cells in tumors (IHC)” value is listed as “reduction of % Ki67+ cells” and the “cleaved caspase 3 staining in tumors (IHC)” value is recorded as “focally increased cleaved caspase 3 staining”. Further, in series [4] (GSK-J4 100 mg/kg i.p. 5x per week, JIB-04 50 mg/kg oral gavage 3x per week, 4 weeks), the “change in tumor volume relative to treatment start” value is reported as “significant tumor shrinkage”. In addition, the “toxicity in treated mice” value in series [4] was “No appreciable toxicity”. For the same compound, the “H3K4me3 demethylase activity in tumor lysates” value in series [5] is reported as “significantly inhibited”. In addition, the “H3K9me3 demethylase activity in tumor lysates” value in series [6] was “significantly inhibited”. Besides, the “expression of MDR1” value in series [7] is recorded as “not altered”. The “decrease in ABCB1/MDR1 mRNA expression” value in series [7] (high dose JIB-04 (10×-20×IC50), 24-48 h treatment) is 10-20%. Further, in series [7] (low dose JIB-04 (1×IC50), 1 wk treatment), the “decrease in ABCB1/MDR1 mRNA expression” value is 10-20%. Moreover, in series [8], the pro-apoptotic/anti-proliferative gene expression result is recorded as “up-regulated” and the proliferative/oncogenic gene expression entry is recorded as “downregulated”.
